# In US7122543B2, “Substituted benzoic acid derivatives having NF-κB inhibiting action” (Daiichi Suntory Pharma Co., Ltd., priority 2001, dated 2006):
# Tested on: NF-κB
# Assay: NF-κB luciferase reporter assay in A549/NF-κBLuc cells stimulated with IL-1β
# Format: cell-based, human
# Conditions: A549/NF-κBLuc cells; compound added 1 hour before IL-1β, 3 hours more incubation; luciferase activity as index
# Experimental: Effects of Compounds on Human Lung Cancer A549 Cells (A549/NF-κBLuc) Stably Transfected with Luciferase Plasmid (pNFκB-Luc, Stratagene, U.S.A.) Having the NF-κB Regulatory Sequence
# Using lipofectamine (Lifetech Oriental K.K., Tokyo), pNFκB-Luc were cotransfected with pSV2neo (Clontech, U.S.A.) into A549 cells (ATCC CCL185) according to the conventional method, and A549/NF-κBLuc stably transfected with pNFκB-Luc were selected by adding G418 sulfate (1 mg/ml, Lifetech Oriental K.K.) to the culture medium.
# A compound prepared in an Example was added to A549/NF-κBLuc, then IL-1β which was able to activate the NF-κB was added at 1 hour thereafter and incubation was continued for 3 hours more. It has been made clear by using a luciferase activity as an index that the compound obtained in the Example suppresses the activation of NF-κB by stimulated with IL-1β.
row,IC50 value,SMILES
1,15 µg/mL,"COC1=C(OC)C(=O)C(Cc2ccc(-c3ccncc3)c(C(=O)N3CCCCC3)c2)=C(C)C1=O [Example 58a, N-[5-(5,6-Dimethoxy-3-methyl-1,4-benzoquinon-2-yl)methyl-2-(4-pyridyl)benzoyl]piperidine]"
2,45 µg/mL,"COC1=C(OC)C(=O)C(Cc2ccc(-c3ccncc3)c(C(=O)N3CCCCC3)c2)=C(C)C1=O [Example 58b, N-[5-(5,6-Dimethoxy-3-methyl-1,4-benzoquinon-2-yl)methyl-2-(4-pyridyl)benzoyl]piperidine]"

# Same assay, conditions: A549/NF-κBLuc cells; word printed in the IC50 column instead of a value
row,SMILES,IC50 value (result in words)
1,"COc1c(C)c(Cc2ccc(C(=O)O)c(-c3cccnc3)c2)c(OC)c(OC)c1OC [Example 12, 4-(3,4,5,6-Tetramethoxy-2-methylbenzyl)-2-(3-pyridyl) benzoic acid]",toxic

# Same assay, conditions: Homo sapiens, A549, A549/NF-κBLuc cells; compound added 1 hour before IL-1β, 3 hours more incubation; luciferase activity as index
row,IC50,SMILES
1,> 15 µg/mL,"COc1c(C)c(Cc2ccc(-c3cccnc3)c(C(=O)O)c2)c(OC)c(OC)c1OC [Example 14, 5-(3,4,5,6-Tetramethoxy-2-methylbenzyl)-2-(3-pyridyl)benzoic acid]"
2,> 15 µg/mL,"COc1c(C)c(Cc2ccc(-c3ccncc3)c(C(=O)O)c2)c(OC)c(OC)c1OC [Example 15, 5-(3,4,5,6-Tetramethoxy-2-methylbenzyl)-2-(4-pyridyl)benzoic acid]"
3,> 15 µg/mL,"COc1cccc(-c2ccc(Cc3c(C)c(OC)c(OC)c(OC)c3OC)cc2C(=O)O)c1 [Example 17, 5-(3,4,5,6-Tetramethoxy-2-methylbenzyl)-2-(3-methoxyphenyl)benzoic acid]"
4,> 15 µg/mL,"COc1ccccc1-c1ccc(Cc2c(C)c(OC)c(OC)c(OC)c2OC)cc1C(=O)O [Example 18, 5-(3,4,5,6-Tetramethoxy-2-methylbenzyl)-2-(2-methoxyphenyl)benzoic acid]"
5,> 15 µg/mL,"COC1=C(OC)C(=O)C(Cc2ccc(C(=O)O)c(-c3ccccc3)c2)=C(C)C1=O [Example 35, 4-(5,6-Dimethoxy-3-methyl-1,4-benzoquinon-2-yl)methyl-2-phenylbenzoic acid]"
6,> 15 µg/mL,"COC1=C(OC)C(=O)C(Cc2ccc(C(=O)O)c(-c3cccnc3)c2)=C(C)C1=O [Example 36, 4-(5,6-Dimethoxy-3-methyl-1,4-benzoquinon-2-yl)methyl-2-(3-pyridyl)benzoic acid]"
7,> 45 µg/mL,"COC1=C(OC)C(=O)C(Cc2ccc(-c3ccccc3)c(C(=O)O)c2)=C(C)C1=O [Example 37, 5-(5,6-Dimethoxy-3-methyl-1,4-benzoquinon-2-yl)methyl-2-phenylbenzoic acid]"
8,> 45 µg/mL,"COC1=C(OC)C(=O)C(Cc2ccc(-c3cccnc3)c(C(=O)O)c2)=C(C)C1=O [Example 38, 5-(5,6-Dimethoxy-3-methyl-1,4-benzoquinon-2-yl)methyl-2-(3-pyridyl)benzoic acid]"
9,> 30 µg/mL,"COC1=C(OC)C(=O)C(Cc2ccc(-c3ccncc3)c(C(=O)O)c2)=C(C)C1=O [Example 39, 5-(5,6-Dimethoxy-3-methyl-1,4-benzoquinon-2-yl)methyl-2-(4-pyridyl)benzoic acid]"
10,> 45 µg/mL,"COC1=C(OC)C(=O)C(Cc2ccc(-c3ccc(OC)cc3)c(C(=O)O)c2)=C(C)C1=O [Example 40, 5-(5,6-Dimethoxy-3-methyl-1,4-benzoquinon-2-yl)methyl-2-(4-methoxyphenyl)benzoic acid]"
11,> 30 µg/mL,"COC1=C(OC)C(=O)C(Cc2ccc(C(=O)Nc3ccc(C(F)(F)F)cc3)c(-c3ccccc3)c2)=C(C)C1=O [Example 45, N-[4-(5,6-Dimethoxy-3-methyl-1,4-benzoquinon-2-yl)methyl-2-phenylbenzoyl]-4-trifluoromethyl-aniline]"
12,24 µg/mL,"COC1=C(OC)C(=O)C(Cc2ccc(C(=O)N3CCOCC3)c(-c3cccnc3)c2)=C(C)C1=O [Example 47, N-[4-(5,6-Dimethoxy-3-methyl-1,4-benzoquinon-2-yl)methyl-2-(3-pyridyl)benzoyl]morpholine]"
13,> 30 µg/mL,"COC1=C(OC)C(=O)C(Cc2ccc(C(=O)Nc3ccc(C(F)(F)F)cc3)c(-c3cccnc3)c2)=C(C)C1=O [Example 48, N-[4-(5,6-Dimethoxy-3-methyl-1,4-benzoquinon-2-yl)methyl-2-(3-pyridyl)benzoyl]-4-trifluoromethylaniline]"
14,24 µg/mL,"COC1=C(OC)C(=O)C(Cc2ccc(C(=O)Nc3ccc(OC)cc3)c(-c3cccnc3)c2)=C(C)C1=O [Example 49, N-[4-(5,6-Dimethoxy-3-methyl-1,4-benzoquinon-2-yl)methyl-2-(3-pyridyl)benzoyl]-4-methoxy-aniline]"
15,> 30 µg/mL,"COC1=C(OC)C(=O)C(Cc2ccc(-c3ccccc3)c(C(=O)N3CCOCC3)c2)=C(C)C1=O [Example 51, N-[5-(5,6-Dimethoxy-3-methyl-1,4-benzoquinon-2-yl)methyl-2-phenylbenzoyl]morpholine]"
16,> 45 µg/mL,"COC1=C(OC)C(=O)C(Cc2ccc(-c3ccccc3)c(C(=O)Nc3ccc(OC)cc3)c2)=C(C)C1=O [Example 52, N-[5-(5,6-Dimethoxy-3-methyl-1,4-benzoquinon-2-yl)methyl-2-phenylbenzoyl]-4-methoxyaniline]"
17,> 30 µg/mL,"COC1=C(OC)C(=O)C(Cc2ccc(-c3ccccc3)c(C(=O)Nc3ccc(C(F)(F)F)cc3)c2)=C(C)C1=O [Example 53, N-[5-(5,6-Dimethoxy-3-methyl-1,4-benzoquinon-2-yl)methyl-2-phenylbenzoyl]-4-trifluoromethylaniline]"
18,15 µg/mL,"COC1=C(OC)C(=O)C(Cc2ccc(-c3cccnc3)c(C(=O)N3CCCCC3)c2)=C(C)C1=O [Example 54, N-[5-(5,6-Dimethoxy-3-methyl-1,4-benzoquinon-2-yl)methyl-2-(3-pyridyl)benzoyl]piperidine]"
19,> 45 µg/mL,"COC1=C(OC)C(=O)C(Cc2ccc(-c3cccnc3)c(C(=O)N3CCOCC3)c2)=C(C)C1=O [Example 55, N-[5-(5,6-Dimethoxy-3-methyl-1,4-benzoquinon-2-yl)methyl-2-(3-pyridyl)benzoyl]morpholine]"
20,> 45 µg/mL,"COC1=C(OC)C(=O)C(Cc2ccc(-c3cccnc3)c(C(=O)Nc3ccc(OC)cc3)c2)=C(C)C1=O [Example 56, N-[5-(5,6-Dimethoxy-3-methyl-1,4-benzoquinon-2-yl)methyl-2-(3-pyridyl)benzoyl]-4-methoxy-aniline]"
21,> 30 µg/mL,"COC1=C(OC)C(=O)C(Cc2ccc(-c3cccnc3)c(C(=O)Nc3ccc(C(F)(F)F)cc3)c2)=C(C)C1=O [Example 57, N-[5-(5,6-Dimethoxy-3-methyl-1,4-benzoquinon-2-yl)methyl-2-(3-pyridyl)benzoyl]-4-trifluoromethylaniline]"
22,> 45 µg/mL,"COC1=C(OC)C(=O)C(Cc2ccc(-c3ccncc3)c(C(=O)N3CCOCC3)c2)=C(C)C1=O [Example 59, N-[5-(5,6-Dimethoxy-3-methyl-1,4-benzoquinon-2-yl)methyl-2-(4-pyridyl)benzoyl]morpholine]"
23,> 30 µg/mL,"COC1=C(OC)C(=O)C(Cc2ccc(-c3ccncc3)c(C(=O)Nc3ccc(OC)cc3)c2)=C(C)C1=O [Example 60a, N-[5-(5,6-Dimethoxy-3-methyl-1,4-benzoquinon-2-yl)methyl-2-(4-pyridyl)benzoyl]-4-methoxyaniline]"
24,> 30 µg/mL,"COC1=C(OC)C(=O)C(Cc2ccc(-c3ccncc3)c(C(=O)Nc3ccc(OC)cc3)c2)=C(C)C1=O.Cl [Example 60b, N-[5-(5,6-Dimethoxy-3-methyl-1,4-benzoquinon-2-yl)methyl-2-(4-pyridyl)benzoyl]-4-methoxyaniline]"

# Same assay, conditions: Homo sapiens, A549, same value printed in parentheses in μM; A549/NF-κBLuc cells, IL-1β stimulation, luciferase activity
row,IC50,SMILES
1,33 µM,"COC1=C(OC)C(=O)C(Cc2ccc(-c3cccnc3)c(C(=O)N3CCCCC3)c2)=C(C)C1=O [Example 54, N-[5-(5,6-Dimethoxy-3-methyl-1,4-benzoquinon-2-yl)methyl-2-(3-pyridyl)benzoyl]piperidine]"

# Same assay, conditions: same value printed in parentheses in μM; A549/NF-κBLuc cells, IL-1β stimulation, luciferase activity
row,IC50,SMILES
1,30 µM,"COC1=C(OC)C(=O)C(Cc2ccc(-c3ccncc3)c(C(=O)N3CCCCC3)c2)=C(C)C1=O [Example 58a, N-[5-(5,6-Dimethoxy-3-methyl-1,4-benzoquinon-2-yl)methyl-2-(4-pyridyl)benzoyl]piperidine]"
2,81 µM,"COC1=C(OC)C(=O)C(Cc2ccc(-c3ccncc3)c(C(=O)N3CCCCC3)c2)=C(C)C1=O [Example 58b, N-[5-(5,6-Dimethoxy-3-methyl-1,4-benzoquinon-2-yl)methyl-2-(4-pyridyl)benzoyl]piperidine]"
